melting point [°C] | Compound
> 330 | CN(C)c1ccc2nnc(C(=O)O)c(O)c2c1
167 to 169 | O=C(C=CC=C(c1ccccc1)c1ccccc1)NCCCCCC(=O)NO
239 to 241 | Cc1cc(SCc2ccnc3[nH]c(-c4ccc(C(F)(F)F)cc4)nc23)ccc1OCC(=O)O
132 to 133 | CC1(C)Oc2ccsc2C(N2CC(=O)NCC2=O)C1O (stereo not given)
173 to 175 | C=Cc1ccc(CSC(CC(=O)O)C(=O)O)cc1 (stereo not given)
130 | CCOC(=O)C1=C(N2CCCC2)N=C(C)C(C(C)=O)C1c1cccc([N+](=O)[O-])c1 (stereo not given)
78 to 79 | CN1NC=CC1c1ccc(C(=O)N2Cc3cccn3Cc3ccccc32)c(Cl)c1 (stereo not given)
100 to 103 | CNc1ncnc2c1ncn2C1CC(F)C(CO)O1 (stereo not given)
136 to 137 | CC(=O)NCC1CCCc2cc(NS(=O)(=O)c3cccc(F)c3)ccc21 (stereo not given)
168 to 172 | COC(=O)c1c[nH]c(-c2ccc(OC[C@@H](O)CNC(C)(C)C)cc2)n1
81 to 83 | Cc1c(Cc2cc(=O)n(-c3cccc(C(F)(F)F)c3)[nH]2)c2cc(Cl)ccc2n1C(=O)c1ccc(Cl)cc1
131 to 136 | CCC(C(C)=CC(CNC(=O)c1nc[nH]n1)=NO)[N+](=O)[O-] (stereo not given)
149 to 151 | CC(C)[C@H](NC(=O)OC(C)(C)C)C(=O)N[C@H](CCC(=O)OCc1ccccc1)C(N)=O
195 | C#Cc1cc2c(Nc3ccc4c(cnn4Cc4ccccc4)c3)ncnc2s1
95.4 | CC(=O)Nc1ccc2ccccc2c1-c1c(P(=O)(c2ccccc2)c2ccccc2)ccc2ccccc12
241 to 242 | CNC(=O)NC(=O)C(CC1CCCC1)c1ccc(S(C)(=O)=O)c([N+](=O)[O-])c1 (stereo not given)
122 to 124 | CCCCN(Cc1ccc(-c2ccccc2-c2nnnn2C(c2ccccc2)(c2ccccc2)c2ccccc2)cc1)c1nc(SC)ncc1C(=O)OCC
108 | OC1(c2ccc(Cl)cc2)CN(C(c2ccccc2)c2ccccc2)C1
133 to 135 | COc1cc(N)c2nc(Cl)cc(C)c2c1Oc1cccc(C(F)(F)F)c1
92 to 93 | O=[N+]([O-])c1ccc(CCn2cccn2)cc1
60.5 | CCOC(=O)Cc1cc(F)ccc1-c1ccccc1
204 to 208 | Cc1ccc(CC2CCN(C(=O)NC(=O)c3ccc(OCc4ccccc4)cc3)CC2)cc1

melting point [°C] | Compound
156 to 157 | CC(C)(C)OC(=O)C(C#N)C(c1cccc2ccccc12)c1cccc2ccccc12 (stereo not given)
172 to 174 | Cn1ccnc1C(=O)c1cc(C(C)(C)C)c(O)c(C(C)(C)C)c1
75 to 77 | Cn1nc(Br)c([N+](=O)[O-])c1NC(C)(C)C
107 to 109 | O=S(=O)(/C=C/c1ccccc1)Nc1ccc(Cl)cc1
88 to 89 | C#CC(O)(c1ccccc1)c1ccc([N+](=O)[O-])cc1 (stereo not given)
285 to 286 | O=C(O)c1ccc(-c2ccc(-c3ccc(Cl)cc3)s2)cc1
122 to 124 | N#Cc1cc2c(cc1O)OCC21C(=O)N(Cc2ccccc2C(F)(F)F)c2ccccc21 (stereo not given)
184 to 186 | Fc1ccc(-c2ccc(CCNc3ncnc4nccnc34)cc2)cn1
252 to 254 | COC(=O)c1ncc(N)nc1N
120 to 121 | COc1cc(C(=O)CCCc2ccccc2)cc([N+](=O)[O-])c1O
108 to 110 | CC(C)Oc1cc(COc2cc(CCC(=O)O)n(-c3ccccc3)n2)cc(COc2ccc(Cl)cc2Cl)c1
184 to 186 | COC1=CC(=O)C(Br)=CC1=O
131 to 134 | COc1ccc(-c2nc(Cl)nc(Cl)n2)cc1
174 to 175 | C=C(C)c1c2c(c(C)c(C)c1N1CCN(c3ccc(OC)cc3)CC1)OC(C)(C)C2
73 to 78 | Cc1noc(NS(=O)(=O)c2ccc(NCC(=O)O)cc2-c2ccc(CC(C)C)cc2)c1C
45 | O=C1CCC(CCCOC2CCOCC2)(c2ccc(Cl)c(Cl)c2)CN1 (stereo not given)
60 to 63 | CCCCCCOc1cc(-n2c(=O)cc(C(F)(F)F)n(C)c2=O)c(F)cc1Cl
110 to 111 | COc1cc2c(cc1O)CCN(Cc1cc(F)cc(F)c1)C2
91 to 92.5 | COc1ccc2c(c1)C(=O)C(Cc1ccncc1)CO2 (stereo not given)
220 to 226 | CN(C)c1ccc(NC(=O)Nc2ccc3c(ccn3C)c2)cn1
133 to 134 | CS(=O)(=O)N1CCC2OC2CC1 (stereo not given)
167 to 169 | O=C1NCC=NN1c1cc(Cl)c(Cc2ccc(C(O)c3ccc(Cl)nc3)cc2)c(Br)c1 (stereo not given)

melting point [°C] | Compound
174 to 175 | CC(=O)c1cccc(NC(=O)CCCC(=O)Nc2cccc(C(C)=O)c2)c1
164 to 165 | CC(C)N1Cc2cccnc2N(c2ccccc2)C1=O
45 to 46 | OCc1cnoc1-c1ccc(OC(F)(F)F)cc1
147 to 148 | CCCn1c(=O)c2[nH]c(C3CCC(=O)C3)nc2n(CCC)c1=O (stereo not given)
190 to 192 | CNC(=O)c1ccc(NC(=O)Oc2ccccc2)cc1
201 to 202 | COc1c(NC(=O)c2cc3cccc(Oc4ccnc(NCCN5CCOCC5)n4)c3n2C)cc(C(C)(C)C)cc1NS(C)(=O)=O
191 to 192 | COc1cc(NC(=O)Nc2ccc(N3CCN(C(=O)Nc4cc(OCCO)ccc4Cl)CC3)cc2)cc(OC)c1
87 to 87.9 | CCCc1ccc(-c2cnc(C#N)c(C#N)n2)cc1
251 to 254 | COc1ccc2c(C)nc(=O)[nH]c2c1
137 to 140 | COC(=O)c1ccc2ccc(NC(=O)OC(C)(C)C)c(Br)c2c1
137 | CCOC(=O)N1CCN(c2ccc(-n3cnn(C(C)(C)C(=O)c4ccc(Cl)cc4)c3=O)cc2)CC1
220 to 221 | CCCc1nc2cccc(C(=S)OC)c2n1Cc1ccc(-c2ccccc2)c(-c2nc(=O)o[nH]2)c1
119 to 120 | Cc1oc2ccc(NC(=O)c3ccccc3)nc2c1CCN(C)C
219 to 220 | Cc1cc(O)c(C)c(C)c1NC=O
178 to 180 | O=C(CCNC(=O)n1cc(F)c(=O)[nH]c1=O)N1CCOCC1
138 to 139 | CCOC(=O)Cn1c(=S)c2ccccc2n(Cc2ccc(Cl)cc2Cl)c1=O
> 300 | Cc1cc(NC(=O)c2cccnc2Cl)[nH]n1
81 to 82 | CCOCN1C(C)=C(C(=O)OC)[C@H](c2cccc([N+](=O)[O-])c2)C(C(=O)OCOC(=O)C(C)(C)C)=C1C
228 | COC1=N/C(=C\c2c[nH]c3ncc(Cl)cc23)C(=O)N1c1ccccc1
78 | C=CCn1c(C)nc2c1CCCC2=O
104 to 106 | COC(=O)C(CCN(C(C)C)C(C)C)(CC(=O)N1CCCCC1)c1ccccc1Cl (stereo not given)
258 | FC(F)(F)c1cccc(-c2cc(C(F)(F)F)n3cnc(-c4ccncc4)c3n2)c1

melting point [°C] | Compound
92 | C=CCC(CCC=NO)C1=C(O)CC(c2ccc(N)cc2)CC1=O (stereo not given)
125 | CCCCCN1C(=O)C(CCC(=O)O)(NC(=O)c2cc3ccccc3n2CCC#N)c2ccccc21 (stereo not given)
> 300 | O=C(O)C1=Cc2cc(Cl)c(Oc3ccc(C(=O)O)cc3)cc2OC1C(F)(F)F (stereo not given)
267 to 269 | S=C(Nc1ccccc1)N1CCN(c2nc3cccccc-3n2)CC1
176 | O=C(c1cc(-c2cccnc2)c(N2CCOCC2)s1)c1ccc(Cl)cc1Cl
41 to 42 | CCOC(=O)c1ccc(OCCCCCCCCCCBr)cc1
194 to 195 | O=C(O)Cc1cn(Cc2ccc(OCc3ccccc3)cc2)nc1-c1ccc(F)cc1
190 to 192 | CCc1nc(OC)c(NC(=O)N2CCN(c3cc(OC)c(OC)c(OC)c3)CC2)cc1C(=O)Nc1cc(CO)cc(Nc2c3ccccc3nc3ccccc23)c1
115 | COc1cc(NP(=O)(OC)OC)ccc1NC(=O)OCc1ccccc1
258 | NS(=O)(=O)c1cccc(NC(=O)c2cnn3c(C(F)F)cc(-c4ccc(C(F)(F)F)cc4)nc23)c1
113 to 115 | O=C(C=Cc1ccc(Cl)cc1)C(Cc1ccccc1)c1ccccc1 (stereo not given)
256 to 258 | COc1ccc(C(=O)Nc2ccc(C(C)(C)CNC(=O)c3cnc4[nH]ccc4c3)cc2)cc1OC
234 to 237 | COc1ccc(CCNC(=O)C(F)(F)F)c2c1NC(=O)C2=O
193 to 194 | CC(=O)NCc1c(C)cc(CCl)cc1C
166 to 167 | COc1ccc2cc(C(=O)C(C)Br)ccc2c1Br (stereo not given)
256 to 258 | CC(C)(C)OC(=O)NCc1ccc(Nc2ncnc3[nH]cc(C(=O)c4ccccc4)c23)cc1
228 | COc1ccc(-n2nc(C(F)(F)F)nc2-c2ccc(S(N)(=O)=O)cc2)cc1
156 to 158 | CCOCC1=NNC(=O)N(N=Cc2cccnc2)C1
202 | CCOC(=O)c1ccccc1N(CC(=O)N(C)c1ccccc1)C(=O)CN1C(=O)c2ccccc2C1=O
55 to 58 | COC(=O)Cc1ccc(OCCNC(=O)C2Cc3ccccc3N2S(=O)(=O)c2ccc(-c3cc(C)ccc3F)cc2)cc1 (stereo not given)
86 to 88 | CN(Cc1ccccc1)Cc1c(-c2ccccc2)sc(N)c1C(=O)c1ccc(Cl)cc1
197 | COc1c(C2CCN(CCCCNC(=O)c3ccc(-c4ccc(Cl)cc4)cc3)CC2)ccc2ccccc12

Compound | melting point [°C]
CCN(CC)Cc1nc(-c2ncn3c2CN(C)C(=O)c2c(Cl)cccc2-3)no1 | 250 to 252
O=C(OCC1CC1)c1ncn2c1C1C=CCN1C(=O)c1c(Cl)cccc1-2 (stereo not given) | 189 to 190
N#CC1OC(COC(=O)c2ccccc2)C(OC(=O)c2ccccc2)C1OC(=O)c1ccccc1 (stereo not given) | 77 to 78
Cc1ccccc1CC(C)(C)NC(C)(O)c1ccc(O)c(O)c1C (stereo not given) | 166 to 169
CCC1(O)CC(=O)OCc2c1cc1n(c2=O)Cc2c-1nc1cc(F)c(F)cc1c2-c1ccccc1 (stereo not given) | > 250
CN1C(=O)C(C(=O)Nc2ccc(Oc3ccc(C(F)(F)F)cn3)cc2)C(=O)N(C)C1=O | 180 to 181
CC(C)(C)OC(=O)N[C@@H]1CN[C@H]2CCO[C@H]21 (relative stereo) | 110 to 111
